Measured values published in patent US11498899B2, “Nitrone herbicides” (FMC Corporation, priority 2016, dated 2022).

Columns and labels:
[1] = test system: barnyardgrass (Echinochloa crus-galli); experiment: Test A preemergence, visual injury rating 0-100 (0 no effect, 100 complete control); format: in vivo; conditions: for Barnyardgrass plant response rating (0 to 100 scale): 125 g ai/ha
Source text: (§1) Seeds of plant species selected from barnyardgrass (Echinochloa crus-galli), kochia (Kochia scoparia), ragweed (common ragweed, Ambrosia elatior), ryegrass, Italian (Italian ryegrass, Lolium multiflorum), foxtail, giant (giant foxtail, Setaria faberii), foxtail, green (green foxtail, Setaria viridis), and pigweed (Amaranthus retroflexus) were planted into a blend of loam soil and sand and treated preemergence with a directed soil spray using test chemicals formulated in a non-phytotoxic solvent mixture which included a surfactant.
(§2) At the same time, plants selected from these weed species and also wheat (Triticum aestivum), corn (Zea mays), blackgrass (Alopecurus myosuroides), and galium (catchweed bedstraw, Galium aparine) were planted in pots containing the same blend of loam soil and sand and treated with postemergence applications of test chemicals formulated in the same manner. Plants ranged in height from 2 to 10 cm and were in the one- to two-leaf stage for the postemergence treatment. Treated plants and untreated controls were maintained in a greenhouse for approximately 10 days, after which time all treated plants were compared to untreated controls and visually evaluated for injury. […] A dash (-) response means no test result.

[2] = test system: foxtail, giant (giant foxtail, Setaria faberii); experiment: Test A preemergence, visual injury rating 0-100; format: in vivo; conditions: for Foxtail, Giant plant response rating (0 to 100 scale): 125 g ai/ha
Source text: as §1, §2

[3] = test system: kochia (Kochia scoparia); experiment: Test A preemergence, visual injury rating 0-100; format: in vivo; conditions: for Kochia plant response rating (0 to 100 scale): 125 g ai/ha
Source text: as §1, §2

[4] = test system: pigweed (Amaranthus retroflexus); experiment: Test A preemergence, visual injury rating 0-100; format: in vivo; conditions: for Pigweed plant response rating (0 to 100 scale): 125 g ai/ha
Source text: as §1, §2

[5] = test system: ragweed (common ragweed, Ambrosia elatior); experiment: Test A preemergence, visual injury rating 0-100; format: in vivo; conditions: for Ragweed plant response rating (0 to 100 scale): 125 g ai/ha
Source text: as §1, §2

[6] = test system: ryegrass, Italian (Italian ryegrass, Lolium multiflorum); experiment: Test A preemergence, visual injury rating 0-100; format: in vivo; conditions: for Ryegrass, Italian plant response rating (0 to 100 scale): 125 g ai/ha
Source text: as §1, §2

[7] = test system: barnyardgrass (Echinochloa crus-galli); experiment: Test A postemergence, visual injury rating 0-100; format: in vivo; conditions: 0 to 100 scale
Source text: as §1, §2

[8] = test system: blackgrass (Alopecurus myosuroides); experiment: Test A postemergence, visual injury rating 0-100; format: in vivo; conditions: 0 to 100 scale
Source text: as §1, §2

[9] = test system: corn (Zea mays); experiment: Test A postemergence, visual injury rating 0-100; format: in vivo; conditions: 0 to 100 scale
Source text: as §1, §2

[10] = test system: foxtail, giant (giant foxtail, Setaria faberii); experiment: Test A postemergence, visual injury rating 0-100; format: in vivo; conditions: 0 to 100 scale
Source text: as §1, §2

[11] = test system: galium (catchweed bedstraw, Galium aparine); experiment: Test A postemergence, visual injury rating 0-100; format: in vivo; conditions: 0 to 100 scale
Source text: as §1, §2

[12] = test system: kochia (Kochia scoparia); experiment: Test A postemergence, visual injury rating 0-100; format: in vivo; conditions: 0 to 100 scale
Source text: as §1, §2

[13] = test system: pigweed (Amaranthus retroflexus); experiment: Test A postemergence, visual injury rating 0-100; format: in vivo; conditions: 0 to 100 scale
Source text: as §1, §2

[14] = test system: ragweed (common ragweed, Ambrosia elatior); experiment: Test A postemergence, visual injury rating 0-100; format: in vivo; conditions: 0 to 100 scale
Source text: as §1, §2

[15] = test system: ryegrass, Italian (Italian ryegrass, Lolium multiflorum); experiment: Test A postemergence, visual injury rating 0-100; format: in vivo; conditions: 0 to 100 scale
Source text: as §1, §2

[16] = test system: wheat (Triticum aestivum); experiment: Test A postemergence, visual injury rating 0-100; format: in vivo; conditions: 0 to 100 scale
Source text: as §1, §2

[17] = test system: ducksalad (Heteranthera limosa); experiment: Test B flooded paddy test, visual rating 0-100; conditions: Flood, 250 g ai/ha, applied to paddy water, rated after 13 to 15 days
[18] = test system: barnyardgrass (Echinochloa crus-galli); experiment: Test B flooded paddy test, visual rating 0-100; conditions: Flood, 250 g ai/ha, applied to paddy water, rated after 13 to 15 days
[19] = test system: rice (Oryza sativa); experiment: Test B flooded paddy test, visual rating 0-100 (0 no effect, 100 complete control); conditions: Flood, 250 g ai/ha, applied to paddy water, rated after 13 to 15 days
[20] = 31 g ai/ha, 0 to 100 scale (0 no effect, 100 complete control), approx. 10 days

## CC1=[N+]([O-])C(C(=O)Nc2cccc(F)c2F)C(c2ccc(F)cc2)C1 (racemic) [Compound 9]
[1]; [20]
  Barnyardgrass plant response rating: 30
[1]
  Barnyardgrass plant response rating (0 to 100 scale): 90
[2]; [20]
  Foxtail, Giant plant response rating: 70
[2]
  Foxtail, Giant plant response rating (0 to 100 scale): 90
[3]; [20]
  Kochia plant response rating: 0
[3]
  Kochia plant response rating (0 to 100 scale): 0
[4]; [20]
  Pigweed plant response rating: 0
[4]
  Pigweed plant response rating (0 to 100 scale): 30
[5]; [20]
  Ragweed plant response rating: 0
[5]
  Ragweed plant response rating (0 to 100 scale): 90
[6]; [20]
  Ryegrass, Italian plant response rating: 0
[6]
  Ryegrass, Italian plant response rating (0 to 100 scale): 0
[7]; 31 g ai/ha
  Barnyardgrass plant response rating: 10
[7]; 125 g ai/ha
  Barnyardgrass plant response rating: 40
[8]; 31 g ai/ha
  Blackgrass plant response rating: 0
[8]; 125 g ai/ha
  Blackgrass plant response rating: 0
[9]; 31 g ai/ha
  Corn plant response rating: 0
[9]; 125 g ai/ha
  Corn plant response rating: 0
[10]; 31 g ai/ha
  Foxtail, Giant plant response rating: 20
[10]; 125 g ai/ha
  Foxtail, Giant plant response rating: 50
[11]; 31 g ai/ha
  Galium plant response rating: 0
[11]; 125 g ai/ha
  Galium plant response rating: 30
[12]; 31 g ai/ha
  Kochia plant response rating: 0
[12]; 125 g ai/ha
  Kochia plant response rating: 0
[13]; 31 g ai/ha
  Pigweed plant response rating: 0
[13]; 125 g ai/ha
  Pigweed plant response rating: 20
[14]; 31 g ai/ha
  Ragweed plant response rating: 0
[14]; 125 g ai/ha
  Ragweed plant response rating: 0
[15]; 31 g ai/ha
  Ryegrass, Italian plant response rating: 0
[15]; 125 g ai/ha
  Ryegrass, Italian plant response rating: 0
[16]; 31 g ai/ha
  Wheat plant response rating: 0
[16]; 125 g ai/ha
  Wheat plant response rating: 0
[17]
  Ducksalad plant response rating (0 to 100 scale): 100
[18]
  Barnyardgrass plant response rating (0 to 100 scale): 85
[19]
  Rice plant response rating (0 to 100 scale): 0

## CC1=[N+]([O-])C(C(=O)Nc2cccc(F)c2F)C(c2ccc(F)c(F)c2)C1 (racemic) [Compound 10]
[1]
  Barnyardgrass plant response rating (0 to 100 scale): 90
[1]; 500 g ai/ha, 0 to 100 scale
  Barnyardgrass plant response rating: 90
[2]
  Foxtail, Giant plant response rating (0 to 100 scale): 80
[2]; 500 g ai/ha, 0 to 100 scale
  Foxtail, Giant plant response rating: 90
[3]
  Kochia plant response rating (0 to 100 scale): 0
[3]; 500 g ai/ha, 0 to 100 scale
  Kochia plant response rating: 60
[4]
  Pigweed plant response rating (0 to 100 scale): 50
[4]; 500 g ai/ha, 0 to 100 scale
  Pigweed plant response rating: 60
[5]
  Ragweed plant response rating (0 to 100 scale): 0
[5]; 500 g ai/ha, 0 to 100 scale
  Ragweed plant response rating: 90
[6]
  Ryegrass, Italian plant response rating (0 to 100 scale): 0
[6]; 500 g ai/ha, 0 to 100 scale
  Ryegrass, Italian plant response rating: 60
[7]; 125 g ai/ha
  Barnyardgrass plant response rating: 40
[7]; 500 g ai/ha
  Barnyardgrass plant response rating: 90
[8]; 125 g ai/ha
  Blackgrass plant response rating: 20
[8]; 500 g ai/ha
  Blackgrass plant response rating: 30
[9]; 125 g ai/ha
  Corn plant response rating: 0
[9]; 500 g ai/ha
  Corn plant response rating: 50
[10]; 125 g ai/ha
  Foxtail, Giant plant response rating: 60
[10]; 500 g ai/ha
  Foxtail, Giant plant response rating: 90
[11]; 125 g ai/ha
  Galium plant response rating: 50
[11]; 500 g ai/ha
  Galium plant response rating: 60
[12]; 125 g ai/ha
  Kochia plant response rating: 0
[12]; 500 g ai/ha
  Kochia plant response rating: 20
[13]; 125 g ai/ha
  Pigweed plant response rating: 0
[13]; 500 g ai/ha
  Pigweed plant response rating: 20
[14]; 125 g ai/ha
  Ragweed plant response rating: 0
[14]; 500 g ai/ha
  Ragweed plant response rating: 20
[15]; 125 g ai/ha
  Ryegrass, Italian plant response rating: 0
[15]; 500 g ai/ha
  Ryegrass, Italian plant response rating: 0
[16]; 125 g ai/ha
  Wheat plant response rating: 0
[16]; 500 g ai/ha
  Wheat plant response rating: 70
[17]
  Ducksalad plant response rating (0 to 100 scale): 100
[18]
  Barnyardgrass plant response rating (0 to 100 scale): 85
[19]
  Rice plant response rating (0 to 100 scale): 0
